Results as given in BindingDB's records for PubMed 2338642 (Marion Merrell Dow, 1990).
Where “and” joins values, the source holds several entries; their conditions need not be identical. Equal values may be shown once.

Target: Voltage-dependent L-type calcium channel subunit alpha-1C (Rattus norvegicus, UniProt P22002)
Sequence (P22002 whole entry): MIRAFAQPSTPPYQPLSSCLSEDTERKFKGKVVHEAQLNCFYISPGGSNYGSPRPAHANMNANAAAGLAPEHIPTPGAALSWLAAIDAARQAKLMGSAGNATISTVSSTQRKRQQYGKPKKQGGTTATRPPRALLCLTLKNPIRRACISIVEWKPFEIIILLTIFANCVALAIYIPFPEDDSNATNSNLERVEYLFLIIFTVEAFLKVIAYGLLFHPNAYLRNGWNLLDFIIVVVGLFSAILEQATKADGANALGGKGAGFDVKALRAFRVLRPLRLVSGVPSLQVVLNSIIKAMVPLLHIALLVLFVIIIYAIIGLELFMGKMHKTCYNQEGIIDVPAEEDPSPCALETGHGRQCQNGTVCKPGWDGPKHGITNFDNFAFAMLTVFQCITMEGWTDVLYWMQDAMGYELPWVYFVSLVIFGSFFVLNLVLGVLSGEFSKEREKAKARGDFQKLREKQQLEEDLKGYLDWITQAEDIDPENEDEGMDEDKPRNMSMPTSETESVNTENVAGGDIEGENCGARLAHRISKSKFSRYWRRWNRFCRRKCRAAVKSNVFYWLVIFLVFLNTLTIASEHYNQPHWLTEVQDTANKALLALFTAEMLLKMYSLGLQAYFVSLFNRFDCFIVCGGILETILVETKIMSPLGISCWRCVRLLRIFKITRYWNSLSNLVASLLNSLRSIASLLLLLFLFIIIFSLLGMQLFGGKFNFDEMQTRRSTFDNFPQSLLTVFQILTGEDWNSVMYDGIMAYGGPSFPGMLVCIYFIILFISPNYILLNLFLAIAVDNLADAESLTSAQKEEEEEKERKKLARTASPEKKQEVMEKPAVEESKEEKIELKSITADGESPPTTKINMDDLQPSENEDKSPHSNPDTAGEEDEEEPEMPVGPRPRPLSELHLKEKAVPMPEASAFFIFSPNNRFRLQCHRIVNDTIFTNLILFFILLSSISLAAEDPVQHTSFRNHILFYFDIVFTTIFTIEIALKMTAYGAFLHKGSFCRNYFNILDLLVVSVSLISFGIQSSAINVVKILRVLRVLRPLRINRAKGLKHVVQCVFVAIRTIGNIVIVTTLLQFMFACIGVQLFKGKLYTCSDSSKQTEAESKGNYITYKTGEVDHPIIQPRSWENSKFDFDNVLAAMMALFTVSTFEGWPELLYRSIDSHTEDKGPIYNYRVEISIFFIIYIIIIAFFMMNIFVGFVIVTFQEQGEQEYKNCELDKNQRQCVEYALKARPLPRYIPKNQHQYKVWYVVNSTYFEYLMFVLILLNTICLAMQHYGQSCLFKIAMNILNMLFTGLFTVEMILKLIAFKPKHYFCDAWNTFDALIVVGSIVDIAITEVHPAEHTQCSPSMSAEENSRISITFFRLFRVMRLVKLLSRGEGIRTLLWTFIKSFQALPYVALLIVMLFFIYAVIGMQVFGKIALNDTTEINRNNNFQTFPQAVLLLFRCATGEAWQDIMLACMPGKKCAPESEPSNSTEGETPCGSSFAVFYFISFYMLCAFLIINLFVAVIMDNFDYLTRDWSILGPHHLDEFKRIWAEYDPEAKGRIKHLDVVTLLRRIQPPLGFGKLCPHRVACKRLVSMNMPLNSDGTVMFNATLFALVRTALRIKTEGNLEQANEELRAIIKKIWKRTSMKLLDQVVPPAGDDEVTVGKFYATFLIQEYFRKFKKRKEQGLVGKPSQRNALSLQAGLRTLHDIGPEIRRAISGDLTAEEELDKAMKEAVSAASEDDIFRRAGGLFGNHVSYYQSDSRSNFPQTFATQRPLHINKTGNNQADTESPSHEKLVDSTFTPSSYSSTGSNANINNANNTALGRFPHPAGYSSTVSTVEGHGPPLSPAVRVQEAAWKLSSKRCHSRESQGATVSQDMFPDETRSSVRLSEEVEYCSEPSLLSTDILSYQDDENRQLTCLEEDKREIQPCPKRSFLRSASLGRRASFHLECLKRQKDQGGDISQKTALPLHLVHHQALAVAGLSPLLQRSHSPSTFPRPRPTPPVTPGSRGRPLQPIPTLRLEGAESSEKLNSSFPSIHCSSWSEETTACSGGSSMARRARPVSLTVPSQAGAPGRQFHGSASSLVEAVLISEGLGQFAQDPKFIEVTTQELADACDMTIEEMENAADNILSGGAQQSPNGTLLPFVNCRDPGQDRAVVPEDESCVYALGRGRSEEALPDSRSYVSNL

Compound	Ki
COc1cc2nc(N3CCN(C(=O)c4ccco4)CC3)nc(N)c2cc1OC [[3H]-Minipress]	6 µM and > 10 µM
COc1ccc([C@@H]2Sc3cc(Cl)ccc3N(CCN(C)C)C(=O)[C@@H]2OC(C)=O)cc1 [CAS_96128-92-6]	> 10 µM
COc1ccc([C@H]2Sc3cc(Cl)ccc3N(CCN(C)C)C(=O)[C@H]2OC(C)=O)cc1 [l-TA-3090]	> 10 µM
